Assay results taken from patent publication US20240034929A1, “SCINTILLATION MATERIALS AND METHODS” (Florida State University Research Foundation, Inc., priority 2022, published 2024).

Assay: Thermogravimetric analysis (thermal stability)
Type: physicochemical
Conditions: heated from room temperature to 700° C. at 5° C./min under argon flux
From the text: More detailed crystallographic results are provided in FIGS. 17a and 17b and the table in FIG. 7. The 0D structure at the molecular level was clearly observed in (TPA-P)2ZnBr4 with ZnBr4^2− tetrahedrons completely isolated and surrounded by TPA-P^+ cations. The zinc center adopted a typical tetra-coordinated geometry bonded to the bromide ions, with an average Zn—Br bond length of 2.41 Å and bond angle of 109.740 (see also the table in FIG. 8).
Thermal Stability Analysis: TGA studies were done using a TA instruments Q600 system. The sample was heated from room temperature to 700° C. at a 5° C./min rate under an argon flux of 100 ml/min.

- onset weight loss (thermogravimetric analysis): 211 °C
Structure (SMILES): CCC[n+]1ccc(-c2ccc(N(c3ccccc3)c3ccccc3)cc2)cc1.[Br-] [TPA-PBr, 4-(4-(diphenylamino)phenyl)-1-(Propyl)-pyrindin-lium bromide]
